Measured values: patent EP4741390A1, “BIARYL RING COMPOUND, INTERMEDIATE THEREOF, PREPARATION METHOD THEREFOR AND USE THEREOF” (Hangzhou Synrx Therapeutics Biomedical Technology Co., Ltd., priority 2023, dated 2025)
pIC50: −log10 of the molar value. Read-outs that look alike come from different tables or passages of the source.

How the values were obtained:
[1] = target: helicase domain of the Pol θ protein (Homo sapiens, UniProt O75417); assay type: biochemical
Method: Biochemical Activity Assay (ADP Glo Assay) of Pol θ Inhibitor
The specific assay method was as follows: • 1) The helicase domain of the Pol θ protein was purified by an insect system, to obtain the protein with a purity of >90%. ssDNA (5'-[sequence]-3', Hangzhou Yocon Biotechnology Co., Ltd.) was ordered as the substrate for the Pol θ protein; and a reaction buffer containing 10 mM DTT (Dithiothreitol), 20 mM MgCl2 and Tris-HCl pH 7.5 was prepared. • 2) The 2x ssDNA-Pol θ premix was prepared; the reaction was conducted in a 384-well plate; a control group with only buffer is set, and the premix was added to the rest of the groups.

DLD1 wild type = experiment: Cell viability assay (CTG assay), DLD1 wild type cells; assay type: cell-based; details: Homo sapiens, DLD-1, 240 h; CellTiter Glo, read on Day 10, initial concentration 30 µM
Method: (§1) 2. Cell Viability Assay of Pol θ Inhibitor
(§2) The cell viability assay, i.e., the commonly used CTG assay, was conducted for the efficacy of the inhibitor in vitro using the CellTiter Glo reagent (Promega, G7573).

DLD1 BRCA2-/- cells = experiment: Cell viability assay (CTG assay), DLD1 BRCA2-/- cells; assay type: cell-based; details: Homo sapiens, DLD-1, 240 h; CellTiter Glo, read on Day 10, initial concentration 30 µM
Method: as §1, §2

[2] = ATPase activity, ADP-Glo, ssDNA substrate, 60 min at room temperature, initial concentration 10 µM, read-out: Biochemical experiment IC50

Chain of helicase domain of the Pol θ protein (O75417 102-554 limits assumed): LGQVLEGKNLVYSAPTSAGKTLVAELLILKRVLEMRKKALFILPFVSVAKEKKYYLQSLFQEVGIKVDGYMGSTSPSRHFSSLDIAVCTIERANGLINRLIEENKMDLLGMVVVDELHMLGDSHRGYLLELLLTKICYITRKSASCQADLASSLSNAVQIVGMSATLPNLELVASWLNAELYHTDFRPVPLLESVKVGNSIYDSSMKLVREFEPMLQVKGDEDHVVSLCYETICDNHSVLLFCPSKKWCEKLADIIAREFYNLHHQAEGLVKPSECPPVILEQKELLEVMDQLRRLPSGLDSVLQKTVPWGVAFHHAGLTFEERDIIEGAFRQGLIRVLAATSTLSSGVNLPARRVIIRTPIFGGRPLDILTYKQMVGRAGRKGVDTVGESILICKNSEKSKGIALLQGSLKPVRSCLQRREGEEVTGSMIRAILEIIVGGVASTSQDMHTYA

IC50 (DLD1 wild type) [nM] | IC50 (DLD1 BRCA2-/- cells) [nM] | pIC50 [1, 2] | Structure (SMILES) | pIC50 [1]
> 50000 | 41.2 | 8.25 | COc1cnc(C(F)F)cc1-c1cc(-n2cccc(F)c2=O)ncc1C(=O)Nc1nc(-c2ccncc2)cs1 [Example 2, 2"-(difluoromethyl)-3-fluoro-5"-methoxy-2-oxo-N-(4-(pyridin-4-yl)thiazol-2-yl)-2H-[1,2':4',4"-terpyridine]-5'-carboxamide] | 
> 50000 | 79.4 | 7.99 | COc1cnc(C(F)F)cc1-c1cc(-n2cccc(F)c2=O)ncc1C(=O)Nc1nc(C2CC2)cs1 [Example 3, N-(4-cyclopropylthiazol-2-yl)-2"-(difluoromethyl)-3-fluoro-5"-methoxy-2-oxo-2H-[1,2':4',4"-terpyridine]-5'-carboxamide] | 
> 50000 | 43 | 7.68 | COc1cnc(C(F)F)cc1-c1cc(-n2cccc(F)c2=O)ncc1C(=O)Nc1nccs1 [Example 4, 2"-(difluoromethyl)-3-fluoro-5"-methoxy-2-oxo-N-(thiazol-2-yl)-2H-[1,2':4',4"-terpyridine]-5'-carboxamide] | 
> 50000 |  | 6.88 | COc1cnc(Cl)cc1-c1cc(C)ncc1C(=O)Nc1nc(C2CC2)ns1 [Example 5, 2'-chloro-N-(3-cyclopropyl-1,2,4-thiadiazol-5-yl)-5'-methoxy-6-methyl-[4,4'-bipyridine]-3-carboxamide] | 
> 50000 | 52.1 | 7.82 | COc1cnc(C(F)F)cc1-c1cc(-n2cccc(F)c2=O)ncc1C(=O)Nc1nc(C(C)(C)C)ns1 [Example 6, N-(3-(tert-butyl)-1,2,4-thiadiazol-5-yl)-2"-(difluoromethyl)-3-fluoro-5"-methoxy-2-oxo-2H-[1,2':4',4"-terpyridine]-5'-carboxamide] | 
> 50000 | 56.2 | 8.40 | COc1nsc(NC(=O)c2cnc(-n3cccc(F)c3=O)cc2-c2cc(C(F)F)ncc2OC)n1 [Example 7, 2"-(difluoromethyl)-3-fluoro-5"-methoxy-N-(3-methoxy-1,2,4-thiadiazol-5-yl)-2-oxo-2H-[1,2':4',4"-terpyridine]-5'-carboxamide] | 
19200 | 56.2 | 8.08 | COc1cnc(C(F)F)cc1-c1cc(-n2cccc(F)c2=O)ncc1C(=O)Nc1nc(-c2ccccn2)ns1 [Example 8, 2"-(difluoromethyl)-3-fluoro-5"-methoxy-2-oxo-N-(3-(pyridin-2-yl)-1,2,4-thiadiazol-5-yl)-2H-[1,2':4',4"-terpyridine]-5'-carboxamide] | 
> 50000 | 32.9 | 7.87 | COc1cnc(C(F)F)cc1-c1cc(-n2cccc(F)c2=O)ncc1C(=O)Nc1nc(-c2ccccc2)ns1 [Example 9, 2"-(difluoromethyl)-3-fluoro-5"-methoxy-2-oxo-N-(3-phenyl-1,2,4-thiadiazol-5-yl)-2H-[1,2':4',4"-terpyridine]-5'-carboxamide] | 
> 50000 | 89.1 | 8.24 | COc1cnc(C(F)F)cc1-c1cc(-n2cccc(F)c2=O)ncc1C(=O)Nc1ncns1 [Example 10, 2"-(difluoromethyl)-3-fluoro-5"-methoxy-2-oxo-N-(1,2,4-thiadiazol-5-yl)-2H-[1,2':4',4''-terpyridine]-5'-carboxamide] | 
> 50000 | 171 | 7.85 | COc1cnc(C(F)F)cc1-c1cc(-n2cccc(F)c2=O)ncc1C(=O)Nc1nc(C)ns1 [Example 11, 2"-(difluoromethyl)-3-fluoro-5"-methoxy-N-(3-methyl-1,2,4-thiadiazol-5-yl)-2-oxo-2H-[1,2':4',4"-terpyridine]-5'-carboxamide] | 
23300 | 25.1 |  | COc1cnc(C(F)F)cc1-c1cc(-n2cccc(F)c2=O)ncc1C(=O)Nc1nc(-c2ccc(F)cc2)ns1 [Example 12, 2"-(difluoromethyl)-3-fluoro-N-(3-(4-fluorophenyl)-1,2,4-thiadiazol-5-yl)-5"-methoxy-2-oxo-2H-[1,2':4',4"-terpyridine]-5'-carboxamide] | 
> 50000 | 54.1 | 7.75 | COc1cnc(C(F)F)cc1-c1cc(-n2cccc(F)c2=O)ncc1C(=O)Nc1nc(-c2cccnc2)ns1 [Example 13, 2"-(difluoromethyl)-3-fluoro-5"-methoxy-2-oxo-N-(3-(pyridin-3-yl)-1,2,4-thiadiazol-5-yl)-2H-[1,2':4',4"-terpyridine]-5'-carboxamide] | 
> 50000 | 4.82 | 8.44 | COc1cnc(C(F)F)cc1-c1cc(-n2cccc(F)c2=O)ncc1C(=O)Nc1nc(-c2c(C)cnn2C)ns1 [Example 14, 2"-(difluoromethyl)-N-(3-(1,4-dimethyl-1H-pyrazol-5-yl)-1,2,4-thiadiazol-5-yl)-3-fluoro-5"-methoxy-2-oxo-2H-[1,2':4',4"-terpyridine]-5'-carboxamide] | 
> 5000 | 10.8 | 8.25 | COc1cnc(C(F)F)cc1-c1cc(-n2cccc(F)c2=O)ncc1C(=O)Nc1nc(-c2ccncc2)ns1 [Example 15, 2"-(difluoromethyl)-3-fluoro-5"-methoxy-2-oxo-N-(3-(pyridin-4-yl)-1,2,4-thiadiazol-5-yl)-2H-[1,2':4',4"-terpyridine]-5'-carboxamide] | 
> 5000 | 10 | 8.01 | CCCc1nsc(NC(=O)c2cnc(-n3cccc(F)c3=O)cc2-c2cc(C(F)F)ncc2OC)n1 [Example 16, 2"-(difluoromethyl)-3-fluoro-5"-methoxy-2-oxo-N-(3-propyl-1,2,4-thiadiazol-5-yl)-2H-[1,2':4',4"-terpyridine]-5'-carboxamide] | 
> 5000 | 3.98 | 8.05 | COc1cnc(C(F)F)cc1-c1cc(-n2cccc(F)c2=O)ncc1C(=O)Nc1nc(C(C)C)ns1 [Example 17, 2"-(difluoromethyl)-3-fluoro-N-(3-isopropyl-1,2,4-thiadiazol-5-yl)-5"-methoxy-2-oxo-2H-[1,2':4',4"-terpyridine]-5'-carboxamide] | 
4300 | 5.62 | 7.60 | COc1cnc(C(F)F)cc1-c1cc(-n2cccc(F)c2=O)ncc1C(=O)Nc1nc(-c2ncccn2)ns1 [Example 18, 2"-(difluoromethyl)-3-fluoro-5"-methoxy-2-oxo-N-(3-(pyrimidin-2-yl)-1,2,4-thiadiazol-5-yl)-2H-[1,2':4',4"-terpyridine]-5'-carboxamide] | 
> 5000 | 56.2 | 7.49 | COc1cnc(C(F)F)cc1-c1cc(-n2cccc(F)c2=O)ncc1C(=O)Nc1nc(-c2cnccn2)ns1 [Example 19, 2"-(difluoromethyl)-3-fluoro-5"-methoxy-2-oxo-N-(3-(pyrazin-2-yl)-1,2,4-thiadiazol-5-yl)-2H-[1,2':4',4"-terpyridine]-5'-carboxamide] | 
> 5000 | 22.4 | 8.08 | COc1cnc(C(F)F)cc1-c1cc(-n2cccc(F)c2=O)ncc1C(=O)Nc1nc(Cl)ns1 [Example 20, N-(3-chloro-1,2,4-thiadiazol-5-yl)-2"-(difluoromethyl)-3-fluoro-5"-methoxy-2-oxo-2H-[1,2':4',4"-terpyridine]-5'-carboxamide] | 
> 5000 | 7.64 | 8.07 | COc1cnc(Cl)cc1-c1cc(-n2cccc(F)c2=O)ncc1C(=O)Nc1nc(C2CC2)ns1 [Example 21, 2"-chloro-N-(3-cyclopropyl-1,2,4-thiadiazol-5-yl)-3-fluoro-5"-methoxy-2-oxo-2H-[1,2':4',4"-terpyridine]-5'-carboxamide] | 
> 5000 | 5.01 | 8.47 | COc1cnc(C(F)F)cc1-c1cc(-n2cccc(F)c2=O)ncc1C(=O)Nc1nc(-c2c(C)noc2C)ns1 [Example 22, 2"-(difluoromethyl)-N-(3-(3,5-dimethylisoxazol-4-yl)-1,2,4-thiadiazol-5-yl)-3-fluoro-5"-methoxy-2-oxo-2H-[1,2':4',4"-terpyridine]-5'-carboxamide] | 
> 5000 |  | 7.47 | COc1cnc(C(F)F)cc1-c1cc(-n2cccc(F)c2=O)ncc1C(=O)Nc1nc(N)ns1 [Example 30, N-(3-amino-1,2,4-thiadiazol-5-yl)-2"-(difluoromethyl)-3-fluoro-5"-methoxy-2-oxo-2H-[1,2':4',4"-terpyridin]-5'-carboxamide] | 
> 5000 |  | 7.84 | COc1cnc(C(F)F)cc1-c1cc(-n2cccc(F)c2=O)ncc1C(=O)Nc1nc(NC(C)=O)ns1 [Example 31, N-(3-acetamino-1,2,4-thiadiazol-5-yl)-2"-(difluoromethyl)-3-fluoro-5"-methoxy-2-oxo-2H-[1,2':4',4"-terpyridin]-5'-carboxamide] | 

Structure (SMILES) | IC50 (DLD1 wild type) [nM] | IC50 (DLD1 BRCA2-/- cells) [nM] | pIC50 [1, 2] | pIC50 [1]
COc1cnc(C(F)F)cc1-c1cc(-n2cccc(F)c2=O)ncc1C(=O)Nc1nc(C2CC2)ns1 [Example 1, N-(3-cyclopropyl-1,2,4-thiadiazol-5-yl)-2"-difluoromethyl-3-fluoro-5"-methoxy-2-oxo-2H-[1,2':4',4"-tripyridin]-5'-carboxamide] | > 50000 | 48.2 |  | 8.16
COc1cnc(C(F)F)cc1-c1cc(-n2cccc(F)c2=O)ncc1C(=O)Nc1nc(N2CC3CC(C2)N3)ns1 [Example 27, N-(3-(3,6-diazabicyclo[3.1.1]heptan-3-yl)-1,2,4-thiadiazol-5-yl)-2"-(difluoromethyl)-3-fluoro-5"-methoxy-2-oxo-2H-[1,2':4',4"-terpyridin]-5'-carboxamide] | > 5000 |  | 6.80 | 
COc1cnc(C(F)F)cc1-c1cc(-n2cccc(F)c2=O)ncc1C(=O)Nc1nc(N2CC3CC(C2)N3C)ns1 [Example 29, 2"-(difluoromethyl)-3-fluoro-5"-methoxy-N-(3-(6-methyl-3,6-diazabicyclo[3.1.1]heptan-3-yl)-1,2,4-thiadiazol-5-y)-2-oxo-2H-[1,2':4',4"-terpyridin]-5'-carboxamide] | > 5000 |  |  | 6.61
